Measured values published in ChEMBL document CHEMBL1201862, “PubChem BioAssay data set” (2004).
Values belong to the molecule of their own block, whether it stands above or below them. The source made the active and inactive calls. For most assays here, no stated cut-off is given here; in the data, actives have a measured IC50 and inactives only a lower limit.

Key:
[1] = tested on: HEK293; experiment: optical interference in Abeta FP readout, dose response, artefact control for IDE activator project, biochemical, fluorescence polarization (AID 588442); assay type: functional, cell-based; conditions: Homo sapiens
[2] = tested on: HEK293; experiment: membrane integrity loss in HEK cells – cell-based, fluorescence, cytotoxicity control for IDE activator project, dose response (AID 588440); assay type: functional; conditions: Homo sapiens;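 further: cytotoxicity by LDH release measuring loss of membrane integrity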
[3] = target: T1, Insulin-degrading enzyme (Homo sapiens, UniProt P14735); experiment: cellular IDE activation of Abeta substrate cleavage – fluorescence polarization, HEK cells, dose response (AID 588439); assay type: functional, cell-based
T1 sequence (P14735 whole entry): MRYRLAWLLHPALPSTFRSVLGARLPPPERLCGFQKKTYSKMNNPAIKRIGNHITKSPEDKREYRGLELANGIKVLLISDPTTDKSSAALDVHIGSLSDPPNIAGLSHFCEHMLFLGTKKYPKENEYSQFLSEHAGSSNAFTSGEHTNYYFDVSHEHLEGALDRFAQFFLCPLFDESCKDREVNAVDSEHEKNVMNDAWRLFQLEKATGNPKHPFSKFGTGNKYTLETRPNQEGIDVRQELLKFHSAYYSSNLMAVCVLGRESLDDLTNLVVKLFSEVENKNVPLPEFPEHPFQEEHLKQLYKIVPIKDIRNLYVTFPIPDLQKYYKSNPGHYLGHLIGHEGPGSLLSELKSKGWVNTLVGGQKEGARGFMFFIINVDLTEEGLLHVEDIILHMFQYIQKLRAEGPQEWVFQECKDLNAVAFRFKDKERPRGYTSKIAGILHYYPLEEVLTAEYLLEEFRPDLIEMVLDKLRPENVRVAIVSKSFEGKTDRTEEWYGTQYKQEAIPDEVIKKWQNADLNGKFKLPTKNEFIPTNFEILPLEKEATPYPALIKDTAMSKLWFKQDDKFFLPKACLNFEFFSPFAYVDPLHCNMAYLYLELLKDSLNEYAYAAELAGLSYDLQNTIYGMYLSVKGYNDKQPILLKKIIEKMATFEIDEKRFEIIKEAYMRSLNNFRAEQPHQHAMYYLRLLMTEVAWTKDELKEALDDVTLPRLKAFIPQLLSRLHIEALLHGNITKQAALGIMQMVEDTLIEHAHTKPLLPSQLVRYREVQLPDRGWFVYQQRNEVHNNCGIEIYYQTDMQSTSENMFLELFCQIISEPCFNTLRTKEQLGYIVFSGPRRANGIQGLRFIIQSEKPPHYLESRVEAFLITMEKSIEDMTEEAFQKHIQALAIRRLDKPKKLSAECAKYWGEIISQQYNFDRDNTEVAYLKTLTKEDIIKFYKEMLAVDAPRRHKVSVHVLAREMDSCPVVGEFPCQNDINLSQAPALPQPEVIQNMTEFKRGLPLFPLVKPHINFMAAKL

[4] = target: T1, Insulin-degrading enzyme; experiment: recombinant IDE activation, cell-free – biochemical, fluorescence polarization, counter-screen for IDE activator project, dose response (AID 588681)
[5] = target: T2, Sentrin-specific protease 6 (Homo sapiens, UniProt Q9GZR1); experiment: SAR Analysis of small molecule inhibitors of Sentrin-specific protease 6 (SENP6) using a Luminescent assay. [Related pubchem assays (depositor defined):AID2582, AID2599]; assay type: functional
T2 sequence (Q9GZR1 whole entry): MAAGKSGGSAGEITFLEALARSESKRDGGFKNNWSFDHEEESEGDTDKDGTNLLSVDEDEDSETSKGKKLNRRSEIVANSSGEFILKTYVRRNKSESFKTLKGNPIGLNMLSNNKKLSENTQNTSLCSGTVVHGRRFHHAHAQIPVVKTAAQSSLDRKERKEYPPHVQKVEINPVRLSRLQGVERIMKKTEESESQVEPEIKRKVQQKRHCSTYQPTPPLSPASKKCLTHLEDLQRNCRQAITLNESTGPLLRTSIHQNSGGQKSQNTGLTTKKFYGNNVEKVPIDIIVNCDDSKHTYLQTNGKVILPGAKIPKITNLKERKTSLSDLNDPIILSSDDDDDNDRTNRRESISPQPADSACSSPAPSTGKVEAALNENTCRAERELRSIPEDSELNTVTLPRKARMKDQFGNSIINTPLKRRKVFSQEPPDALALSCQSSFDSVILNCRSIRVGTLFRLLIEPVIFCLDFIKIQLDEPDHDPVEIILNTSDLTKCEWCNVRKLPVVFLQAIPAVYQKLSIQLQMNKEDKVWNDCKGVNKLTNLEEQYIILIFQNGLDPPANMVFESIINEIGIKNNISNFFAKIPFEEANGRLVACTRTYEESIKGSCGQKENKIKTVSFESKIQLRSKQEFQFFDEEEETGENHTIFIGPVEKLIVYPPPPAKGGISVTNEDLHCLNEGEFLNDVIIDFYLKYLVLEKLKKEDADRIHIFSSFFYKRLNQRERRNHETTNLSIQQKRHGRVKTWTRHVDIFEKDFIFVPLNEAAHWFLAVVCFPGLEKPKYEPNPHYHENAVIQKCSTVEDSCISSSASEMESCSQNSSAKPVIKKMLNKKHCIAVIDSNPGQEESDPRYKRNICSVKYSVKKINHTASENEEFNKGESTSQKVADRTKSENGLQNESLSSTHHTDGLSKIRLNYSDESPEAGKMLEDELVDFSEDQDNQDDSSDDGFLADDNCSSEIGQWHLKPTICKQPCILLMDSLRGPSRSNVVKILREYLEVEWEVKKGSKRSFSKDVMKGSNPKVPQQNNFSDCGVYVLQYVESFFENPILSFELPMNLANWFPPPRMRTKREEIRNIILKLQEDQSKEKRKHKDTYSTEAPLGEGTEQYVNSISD

[6] = target: T3, Caspase-3 (Homo sapiens, UniProt P42574); experiment: SAR Analysis of small molecule inhibitors of Sentrin-specific proteases (SENPs) using a Caspase-3 Selectivity assay. [Related pubchem assays (depositor defined):AID2540, AID2599, AID434973, AID489001]; assay type: functional
T3 sequence (P42574 whole entry): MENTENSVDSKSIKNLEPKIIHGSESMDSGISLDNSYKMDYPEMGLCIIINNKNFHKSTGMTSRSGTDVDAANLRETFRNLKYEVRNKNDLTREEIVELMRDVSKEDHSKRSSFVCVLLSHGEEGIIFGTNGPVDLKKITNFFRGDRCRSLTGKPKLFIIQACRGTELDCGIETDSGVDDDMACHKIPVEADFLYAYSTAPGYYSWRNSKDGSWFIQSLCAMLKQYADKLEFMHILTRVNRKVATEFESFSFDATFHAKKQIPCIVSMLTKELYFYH

[7] = target: T4, Sentrin-specific protease 8 (Homo sapiens, UniProt Q96LD8); experiment: inhibition of human SENP8 cleavage activity – biochemical, luminescence, SAR follow-up (AID 504501); assay type: functional
T4 sequence (Q96LD8 whole entry): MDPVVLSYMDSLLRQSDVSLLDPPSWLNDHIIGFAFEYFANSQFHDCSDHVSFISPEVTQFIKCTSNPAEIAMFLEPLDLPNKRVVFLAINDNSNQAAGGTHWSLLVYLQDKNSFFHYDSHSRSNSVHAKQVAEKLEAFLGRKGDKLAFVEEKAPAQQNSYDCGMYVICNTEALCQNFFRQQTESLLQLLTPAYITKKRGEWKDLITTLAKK

[8] = target: T5, Sentrin-specific protease 7 (Homo sapiens, UniProt Q9BQF6); experiment: inhibition of human SENP7 cleavage activity – biochemical, luminescence, SAR follow-up (AID 504497); assay type: functional
T5 sequence (Q9BQF6 whole entry): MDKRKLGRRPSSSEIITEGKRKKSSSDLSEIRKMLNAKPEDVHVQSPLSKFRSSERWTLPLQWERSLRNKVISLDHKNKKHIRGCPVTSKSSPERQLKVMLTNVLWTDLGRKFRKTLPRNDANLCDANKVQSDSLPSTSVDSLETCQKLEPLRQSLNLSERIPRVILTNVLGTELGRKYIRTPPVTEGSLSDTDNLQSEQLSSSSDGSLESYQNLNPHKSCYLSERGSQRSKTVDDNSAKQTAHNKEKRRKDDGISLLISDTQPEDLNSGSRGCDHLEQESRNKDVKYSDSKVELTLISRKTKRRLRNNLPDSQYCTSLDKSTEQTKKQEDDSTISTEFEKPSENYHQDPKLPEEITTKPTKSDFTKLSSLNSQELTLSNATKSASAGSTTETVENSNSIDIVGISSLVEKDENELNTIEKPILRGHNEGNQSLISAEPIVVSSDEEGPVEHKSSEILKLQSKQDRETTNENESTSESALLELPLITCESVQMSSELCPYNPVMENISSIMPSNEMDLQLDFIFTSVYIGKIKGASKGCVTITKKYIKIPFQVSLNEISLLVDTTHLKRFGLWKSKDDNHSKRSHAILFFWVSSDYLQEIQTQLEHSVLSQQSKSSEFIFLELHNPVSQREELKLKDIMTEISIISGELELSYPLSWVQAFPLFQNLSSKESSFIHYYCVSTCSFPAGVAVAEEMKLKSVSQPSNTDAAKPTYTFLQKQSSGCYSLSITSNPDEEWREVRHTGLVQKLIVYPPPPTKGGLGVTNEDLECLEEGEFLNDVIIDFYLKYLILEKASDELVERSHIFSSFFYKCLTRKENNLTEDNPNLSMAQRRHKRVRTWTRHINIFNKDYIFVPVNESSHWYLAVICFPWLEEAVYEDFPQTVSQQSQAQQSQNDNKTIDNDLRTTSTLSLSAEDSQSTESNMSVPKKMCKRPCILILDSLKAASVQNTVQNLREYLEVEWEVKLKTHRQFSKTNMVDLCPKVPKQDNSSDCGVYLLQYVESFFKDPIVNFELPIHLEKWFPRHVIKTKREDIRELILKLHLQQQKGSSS

[9] = target: T5, Sentrin-specific protease 7; experiment: inhibition of human SENP7 cleavage activity – biochemical, luminescence, set 2, SAR follow-up (AID 588600); assay type: functional
[10] = target: T3, Caspase-3; experiment: inhibition of recombinant caspase-3 activity – biochemical, luminescence, set 2, selectivity assay for SENP protease inhibitor project, SAR follow-up (AID 588599); assay type: functional
[11] = target: T4, Sentrin-specific protease 8; experiment: inhibition of sentrin protease 8 – biochemical, luminescence, set 2, SAR follow-up (AID 588601); assay type: functional
[12] = target: T2, Sentrin-specific protease 6; experiment: inhibition of human SENP6 catalytic domain – biochemical, luminescence, set 2, SAR follow-up (AID 588598); assay type: functional

SMILES: O=C(CN1CCN(CN2C(=O)NC3(CCCCCC3)C2=O)CC1)Nc1ccc(F)cc1
EC50 [1]: > 55.9 µM (inactive)
IC50 [2]: > 89.2 µM (inactive)
EC50 [3]: > 54.7 µM (inactive)
EC50 [4]: > 54.7 µM (inactive)

IC50 [5]: > 99 µM (inactive)
IC50 [6]: > 99 µM (inactive)
IC50 [8]: > 99 µM (inactive)
SMILES: N#Cc1c(NC(=O)c2cc3ncc(Br)cn3n2)sc2c1CCCC2
IC50 [7]: > 99 µM (inactive)

IC50 [9]: > 99 µM (inactive)
IC50 [10]: > 99 µM (inactive)
IC50 [12]: > 99 µM (inactive)
SMILES: Cc1sc2ncnc(N3CCC(C(=O)Nc4nc5c(F)cc(F)cc5s4)CC3)c2c1C
IC50 [11]: > 99 µM (inactive)
